Experimental data reported in US8785460B2, “Tricyclic compounds and use thereof” (Takeda Pharmaceutical Company Limited, priority 2008, dated 2014).

Target: T1, human CRF1 receptor (Homo sapiens, UniProt P34998)
T1 construct: expressed in transfected cells; host or cells: CHO cells (membrane fraction)
T1 sequence (P34998 24-415): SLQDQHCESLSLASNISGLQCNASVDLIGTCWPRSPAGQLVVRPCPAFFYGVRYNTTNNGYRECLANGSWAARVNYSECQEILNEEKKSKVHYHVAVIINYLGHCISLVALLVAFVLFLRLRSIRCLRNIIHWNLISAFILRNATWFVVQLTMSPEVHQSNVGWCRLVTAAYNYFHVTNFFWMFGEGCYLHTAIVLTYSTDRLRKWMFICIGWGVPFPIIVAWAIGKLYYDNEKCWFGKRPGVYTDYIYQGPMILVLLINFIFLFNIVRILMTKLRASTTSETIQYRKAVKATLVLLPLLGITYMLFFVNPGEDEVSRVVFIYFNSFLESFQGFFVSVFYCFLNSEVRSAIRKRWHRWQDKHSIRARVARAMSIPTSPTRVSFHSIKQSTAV
Test: Measurement of CRF Binding Inhibitory Rate (receptor binding experiment with 125I-CRF)
Details: human CRF1 receptor expressing CHO cellular membrane fraction, 50 pM 125I-CRF, room temperature 1.5 hr, 0.05 nM to 10 μM of compound; read-out: IC50 values (CRF binding inhibition)

| SMILES | IC50 [nM] |
| --- | --- |
| OC(c1ccc(Br)c2nc3n(c12)CCCN3c1ccc(Cl)cc1Cl)(C1CC1)C1CC1 [Example 368, [9-Bromo-1-(2,4-dichlorophenyl)-1,2,3,4-tetrahydropyrimido[1,2-a]benzimidazol-6-yl](dicyclopropyl)methanol] | < 1000 |
| CCC(NC(C)=O)c1ccc(Cl)c2nc3n(c12)CCCN3c1c(C)cc(Cl)cc1Cl (centres unmarked) [Example 377, N-{1-[9-Chloro-1-(2,4-dichloro-6-methylphenyl)-1,2,3,4-tetrahydropyrimido[1,2-a]benzimidazol-6-yl]propyl}acetamide] | < 1000 |
| CCC(O)c1ccc(Cl)c2nc3n(c12)CCCN3c1c(C)cc(Cl)cc1Cl (centres unmarked) [Example 379, 1-[9-Chloro-1-(2,4-dichloro-6-methylphenyl)-1,2,3,4-tetrahydropyrimido[1,2-a]benzimidazol-6-yl]propan-1-ol] | < 1000 |
| C=CCCC(O)c1ccc(Cl)c2nc3n(c12)CCCN3c1c(C)cc(Cl)cc1Cl (centres unmarked) [Example 381, 1-[9-Chloro-1-(2,4-dichloro-6-methylphenyl)-1,2,3,4-tetrahydropyrimido[1,2-a]benzimidazol-6-yl]pent-4-en-1-ol] | < 1000 |
| C=CCC(O)c1ccc(Cl)c2nc3n(c12)CCCN3c1c(C)cc(Cl)cc1Cl (centres unmarked) [Example 383, 1-[9-Chloro-1-(2,4-dichloro-6-methylphenyl)-1,2,3,4-tetrahydropyrimido[1,2-a]benzimidazol-6-yl]but-3-en-1-ol] | < 1000 |
| CCC(c1ccc(Cl)c2nc3n(c12)CCCN3c1ccc(Cl)cc1Cl)N(C)S(C)(=O)=O (centres unmarked) [Example 385, N-{1-[9-Chloro-1-(2,4-dichlorophenyl)-1,2,3,4-tetrahydropyrimido[1,2-a]benzimidazol-6-yl]propyl}-N-methylmethanesulfonamide] | < 1000 |
| Cc1cc(Cl)cc(Cl)c1N1CCCn2c1nc1c(Cl)ccc(C(O)CC3CC3)c12 (centres unmarked) [Example 386, 1-[9-Chloro-1-(2,4-dichloro-6-methylphenyl)-1,2,3,4-tetrahydropyrimido[1,2-a]benzimidazol-6-yl]-2-cyclopropylethanol] | < 1000 |
| CCC(c1ccc(Cl)c2nc3n(c12)CCCN3c1ccc(Cl)cc1Cl)N(C)C(C)=O (centres unmarked) [Example 388, N-{1-[9-Chloro-1-(2,4-dichlorophenyl)-1,2,3,4-tetrahydropyrimido[1,2-a]benzimidazol-6-yl]propyl}-N-methylacetamide] | < 1000 |
| CCC(c1ccc(Cl)c2nc3n(c12)CCCN3c1ccc(Cl)cc1Cl)C(F)F (centres unmarked) [Example 403, 9-Chloro-1-(2,4-dichlorophenyl)-6-[1-(difluoromethyl)propyl]-1,2,3,4-tetrahydropyrimido[1,2-a]benzimidazole] | < 1000 |
| CCC(c1ccc(Cl)c2nc3n(c12)CCCN3c1ccc(Cl)cc1Cl)C(C)O (centres unmarked) [Example 404, 3-[9-Chloro-1-(2,4-dichlorophenyl)-1,2,3,4-tetrahydropyrimido[1,2-a]benzimidazol-6-yl]pentan-2-ol] | < 1000 |
| CCC(C(C)=O)c1ccc(Cl)c2nc3n(c12)CCCN3c1ccc(Cl)cc1Cl (centres unmarked) [Example 405, 3-[9-Chloro-1-(2,4-dichlorophenyl)-1,2,3,4-tetrahydropyrimido[1,2-a]benzimidazol-6-yl]pentan-2-one] | < 1000 |
| FC(F)(F)C(Cl)c1ccc(Cl)c2nc3n(c12)CCCN3c1c(Cl)cc(Cl)cc1Cl (centres unmarked) [Example 412, 9-Chloro-6-(1-chloro-2,2,2-trifluoroethyl)-1-(2,4,6-trichlorophenyl)-1,2,3,4-tetrahydropyrimido[1,2-a]benzimidazole] | < 1000 |
| NC(c1ccc(Cl)c2nc3n(c12)CCCN3c1c(Cl)cc(Cl)cc1Cl)C(F)(F)F (centres unmarked) [Example 414, 1-[9-Chloro-1-(2,4,6-trichlorophenyl)-1,2,3,4-tetrahydropyrimido[1,2-a]benzimidazol-6-yl]-2,2,2-trifluoroethanamine] | < 1000 |
| CC(=O)NC(c1ccc(Cl)c2nc3n(c12)CCCN3c1c(Cl)cc(Cl)cc1Cl)C(F)(F)F (centres unmarked) [Example 415, N-{1-[9-Chloro-1-(2,4,6-trichlorophenyl)-1,2,3,4-tetrahydropyrimido[1,2-a]benzimidazol-6-yl]-2,2,2-trifluoroethyl}acetamide] | < 1000 |
| CCC(OC(=O)CC(C)(C)O)c1ccc(Cl)c2nc3n(c12)CCCN3c1ccc(Cl)cc1Cl (centres unmarked) [Example 444, 1-[9-Chloro-1-(2,4-dichlorophenyl)-1,2,3,4-tetrahydropyrimido[1,2-a]benzimidazol-6-yl]propyl 3-hydroxy-3-methylbutanoate] | < 1000 |
| FC(F)COC(c1ccc(Cl)c2nc3n(c12)CCCN3c1ccc(Cl)cc1Cl)C1CC1 (centres unmarked) [Example 464, 9-Chloro-6-[cyclopropyl(2,2-difluoroethoxy)methyl]-1-(2,4-dichlorophenyl)-1,2,3,4-tetrahydropyrimido[1,2-a]benzimidazole] | < 1000 |

| SMILES | IC50 [nM] |
| --- | --- |
| COc1ccc(N2CCCn3c2nc2c(Cl)ccc(C(O)(C4CC4)C4CC4)c23)c(Cl)c1 [Example 465, [9-Chloro-1-(2-chloro-4-methoxyphenyl)-1,2,3,4-tetrahydropyrimido[1,2-a]benzimidazol-6-yl](dicyclopropyl)methanol] | < 1000 |
| CCC(OCC(F)(F)F)c1ccc(Cl)c2nc3n(c12)CCCN3c1ccc(OC)cc1Cl (centres unmarked) [Example 466, 9-Chloro-1-(2-chloro-4-methoxyphenyl)-6-[1-(2,2,2-trifluoroethoxy)propyl]-1,2,3,4-tetrahydropyrimido[1,2-a]benzimidazole] | < 1000 |
| CCOC(c1ccc(Cl)c2nc3n(c12)CCCN3c1ccc(OC)cc1Cl)C(F)(F)F (centres unmarked) [Example 470] | < 1000 |
| COc1ccc(N2CCCn3c2nc2c(Cl)ccc(C(OC)C(F)(F)F)c23)c(Cl)c1 (centres unmarked) [Example 471, 9-Chloro-1-(2-chloro-4-methoxyphenyl)-6-(2,2,2-trifluoro-1-methoxyethyl)-1,2,3,4-tetrahydropyrimido[1,2-a]benzimidazole] | < 1000 |
| COc1ccc(N2CCCn3c2nc2c(Cl)ccc(C(OCC(F)F)C4CC4)c23)c(Cl)c1 (centres unmarked) [Example 472, 9-Chloro-1-(2-chloro-4-methoxyphenyl)-6-[cyclopropyl(2,2-difluoroethoxy)methyl]-1,2,3,4-tetrahydropyrimido[1,2-a]benzimidazole] | < 1000 |
| CCC(OC1CC1)c1ccc(Cl)c2nc3n(c12)CCCN3c1ccc(OC)cc1Cl (centres unmarked) [Example 474, 9-Chloro-1-(2-chloro-4-methoxyphenyl)-6-[1-(cyclopropyloxy)propyl]-1,2,3,4-tetrahydropyrimido[1,2-a]benzimidazole] | < 1000 |
| CC(=O)NC(c1ccc(Cl)c2nc3n(c12)CCCN3c1ccc(Cl)cc1Cl)C(F)(F)F (centres unmarked) [Example 476, N-{1-[9-chloro-1-(2,4-dichlorophenyl)-1,2,3,4-tetrahydropyrimido[1,2-a]benzimidazol-6-yl]-2,2,2-trifluoroethyl}acetamide] | < 1000 |
| Cc1cc(S(C)(=O)=O)ccc1N1CCCn2c1nc1c(Cl)ccc(C(OC(F)F)C(F)(F)F)c12 (centres unmarked) [Example 477, 9-Chloro-6-[1-(difluoromethoxy)-2,2,2-trifluoroethyl]-1-[2-methyl-4-(methylsulfonyl)phenyl]-1,2,3,4-tetrahydropyrimido[1,2-a]benzimidazole] | < 1000 |
| CCC(OC(=O)C(C)C)c1ccc(Cl)c2nc3n(c12)CCCN3c1ccc(Cl)cc1Cl (centres unmarked) [Example 480, 1-[9-Chloro-1-(2,4-dichlorophenyl)-1,2,3,4-tetrahydropyrimido[1,2-a]benzimidazol-6-yl]propyl 2-methylpropanoate] | < 1000 |
| CCC(OC(=O)C(C)(C)C)c1ccc(Cl)c2nc3n(c12)CCCN3c1ccc(Cl)cc1Cl (centres unmarked) [Example 481, 1-[9-Chloro-1-(2,4-dichlorophenyl)-1,2,3,4-tetrahydropyrimido[1,2-a]benzimidazol-6-yl]propyl 2,2-dimethylpropanoate] | < 1000 |
| CCN(CC)c1cccc2nc3n(c12)CCC(=O)NC3c1ccc(Cl)cc1Cl (centres unmarked) [Example 487, 1-(2,4-Dichlorophenyl)-7-(diethylamino)-1,2,4,5-tetrahydro-3H-[1,4]diazepino[1,2-a]benzimidazol-3-one] | < 1000 |
| CCN(CC)c1cccc2nc3n(c12)CCC=C3c1ccc(Cl)cc1Cl [Example 492, 4-(2,4-Dichlorophenyl)-N,N-diethyl-1,2-dihydropyrido[1,2-a]benzimidazol-9-amine] | < 1000 |
| CCN(CC)c1cc(F)cc2nc3n(c12)CCCOC3c1ccc(Cl)cc1Cl (centres unmarked) [Example 494, 1-(2,4-Dichlorophenyl)-N,N-diethyl-9-fluoro-4,5-dihydro-1H,3H-[1,4]oxazepino[4,3-a]benzimidazol-7-amine] | < 1000 |
| OC(c1ccc(Cl)c2nc3n(c12)CCCOC3c1ccc(Cl)cc1Cl)(C1CC1)C1CC1 (centres unmarked) [Example 500, [10-Chloro-1-(2,4-dichlorophenyl)-4,5-dihydro-1H,3H-[1,4]oxazepino[4,3-a]benzimidazol-7-yl](dicyclopropyl)methanol] | < 1000 |
| CCN(CC)c1ccc(Cl)c2nc3n(c12)CCOC3c1ccc(Cl)cc1Cl (centres unmarked) [Example 502, 9-Chloro-1-(2,4-dichlorophenyl)-N,N-diethyl-3,4-dihydro-1H-[1,4]oxazino[4,3-a]benzimidazol-6-amine] | < 1000 |
| CCN(CC)c1cccc2nc3n(c12)CCN=C3c1ccc(Cl)cc1Cl [Example 507, 1-(2,4-Dichlorophenyl)-N,N-diethyl-3,4-dihydropyrazino[1,2-a]benzimidazol-6-amine] | < 1000 |
